{"source": "paper PMC2784637", "about": "(Biochemistry, 2009)", "target": "T1, cyt bc1 (ubihydroquinone:cytochrome c oxidoreductase) (Rhodobacter capsulatus, UniProt D5ANZ2+D5ANZ3)", "T1 sequence (D5ANZ3 2-437)": "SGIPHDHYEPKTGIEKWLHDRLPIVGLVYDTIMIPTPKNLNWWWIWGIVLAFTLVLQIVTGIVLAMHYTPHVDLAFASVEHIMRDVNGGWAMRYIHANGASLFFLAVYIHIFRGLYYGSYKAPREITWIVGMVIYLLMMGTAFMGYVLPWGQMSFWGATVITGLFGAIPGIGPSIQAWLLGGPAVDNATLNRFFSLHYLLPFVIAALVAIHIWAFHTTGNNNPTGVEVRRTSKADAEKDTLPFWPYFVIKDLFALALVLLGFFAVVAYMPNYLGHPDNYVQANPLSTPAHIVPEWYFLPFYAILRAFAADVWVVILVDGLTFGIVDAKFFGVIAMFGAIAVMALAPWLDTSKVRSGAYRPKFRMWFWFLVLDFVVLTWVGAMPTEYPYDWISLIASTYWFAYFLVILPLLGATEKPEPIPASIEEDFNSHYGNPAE", "T1 sequence (D5ANZ2 1-191)": "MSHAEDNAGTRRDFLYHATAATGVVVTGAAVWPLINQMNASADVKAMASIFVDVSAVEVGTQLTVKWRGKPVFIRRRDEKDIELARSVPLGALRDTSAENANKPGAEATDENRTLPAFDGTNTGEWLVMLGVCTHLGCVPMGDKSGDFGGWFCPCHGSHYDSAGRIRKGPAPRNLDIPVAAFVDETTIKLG", "T1 sequence (D5ANZ4 22-279 partner)": "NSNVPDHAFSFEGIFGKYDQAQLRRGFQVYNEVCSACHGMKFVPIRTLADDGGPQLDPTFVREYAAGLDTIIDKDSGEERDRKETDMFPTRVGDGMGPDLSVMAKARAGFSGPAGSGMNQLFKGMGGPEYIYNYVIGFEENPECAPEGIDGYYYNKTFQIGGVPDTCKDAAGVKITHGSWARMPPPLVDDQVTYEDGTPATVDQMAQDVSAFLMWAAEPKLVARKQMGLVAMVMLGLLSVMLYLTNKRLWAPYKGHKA", "experiment": "light-activated cyt b reduction and cyt c rereduction kinetics", "assay_type": "biochemical", "details": "chromatophore membranes, 10 uM, pH 7.0, Eh 100 mV; Qo site", "data": [{"smiles": "CO/C(=C/C(N)=O)[C@H](C)[C@H](/C=C/c1csc(-c2csc([C@@H](C)/C=C/C=C/C(C)C)n2)n1)OC", "note": "[myxothiazol]", "values": [{"measurement": "light-activated cyt b reduction and cyt c rereduction kinetics", "value": "addition of myxothiazol completely abolished the kinetics by displacing the Qo site occupant"}]}]}
